In US20100104546A1, “MODULATORS OF ANTIGEN-DEPENDENT T CELL PROLIFERATION” (CHILDREN, YOUTH AND WOMEN'S HEALTH SERVICE, priority 2007, published 2010):

Test system: splenocytes
Assay: Ex-vivo antigen (SRBC)-dependent splenocyte proliferation after administration to SRBC-immunized mice (thymidine incorporation)
Type: in vivo, Balb/c mice
Details: ip in mouse serum, between 10-80 mg/kg
Procedure: Mice were immunized with SRBC for 5 days. β-oxa-21:3n-3 was delivered in DMSO and injected intraperitoneally at the indicated doses. After 2 h spleens were removed and single cell suspensions were prepared. The splenocytes were cultured for 3 days in the presence (□), or absence (▪) of SRBC. Thymidine incorporation for final 16 hours of culture was determined. The data is expressed as mean±SEM of 3 separate experiments each in triplicate.
Mice were immunized with SRBC for 5 days. Then β-oxa-21:3n-3 dissolved in syngeneic mouse serum and injected intraperitoneally (A), intravenously (B) or gavaged/orally (C) at the indicated concentrations. After 2 h spleens were removed, single cell suspensions prepared and the splenocytes cultured for 3 days in the presence (▪), or absence (□) of SRBC. Thymidine incorporation for final 16 hours of culture was determined. The data is presented as the mean±SEM of 3 separate experiments separate experiments, each in quintuplets.
Mice were immunized with SRBC. After 5 days they were given β-thia-21:3n-3 at the indicated doses i.p. After 2 hours the spleens were removed and processed into single cell suppressions. These were then cultured in the presence (□), or absence of (▪) of SRBC to assess the proliferation. The results are expressed as mean±SEM of 3 experiments. (B) Effect of β-oxa-21:3n-3 on tetanus toxoid (TT)-induced ex vivo lymphocyte responses. Mice were immunized with TT subcutaneously and after 7 days were given β-oxa-21:3n-3 in mouse serum, intraperitoneally. Two hours later the spleen removed, single cell suspension prepared and examined for lymphoproliferation responses to TT in 5 day cultures. The results are expressed as mean±SEM of 3 experiments.
6-7 weeks old Balb/c mice were injected subcutaneously with 100 μl of 10% sheep red blood cells (IMVS, Inc., Adelaide, Australia) After 5 days 100 ul of β-oxa-21:3n-3 at indicated amounts were injected intraperitoneally, intravenously or gavaged orally. In another experimental set up mice were given β-tha-21:3n-3 i.p. In a third approach mice were infected subcutaneously with 100 μl of Tetanus Toxoid (2,500 Lf/ml). Then 7 days later were given β-oxa-21:3n-3. At indicated time points mice were sacrificed and spleens were removed. Single cell suspensions were prepared and white blood cells (WBC) were enriched by passing through Ficoll-Paque Plus (GE Healthcare). Cells were washed with RPMI-1640 containing 10% fetal bovine serum, 10 mM Hepes, antibiotics and glutamine (RPMI-10) and counted using an automated Cell-Dyne 3500R (Abbott, Inc. MA) instrument. Cells were viable (>98%) as judged by trypan blue exclusion. (β-oxa-21:3n-3)- or vehicle-treated mouse samples (200,000/well) were mixed either with SRBC (600,000/well) with 100 μl of Tetanus toxoid (50 Lf/ml) or phytohaemaglutinin (PHA) (2 μg/ml) or with PHA plus phorbol myristate acetate (PMA) (10 ng/ml) or with PMA plus calcium ionophore A23187 ([…]). Cells were cultured in 96 well U bottom plates (Nunc, Inc. Denmark) for 3 days (except for TT −5 days) at 37° C. under humidified air containing 5% CO2. At some instances 50 μl of supernatants were transferred to a new plate and frozen immediately at −70° C. to be used for cytokine measurements. Thymidine (50 μl, 1 μCi/well) was added at final 16 hours of culture. Cells were harvested and thymidine incorporation was determined using a beta scintillation counter.

Substance: β-thia-21:3n-3
- lymphoproliferative response to SRBC: inhibition of the lymphoproliferative response in a dose dependent manner
